Measured values from US12195450B2, “Small molecule neutral sphingomyelinase 2 (nSMase2) inhibitors” (The Johns Hopkins University, priority 2019, dated 2025).
Where a name gives a salt, the structure may show the parent alone.

Biological target: T1, nSMase2 (Homo sapiens, UniProt Q9NY59)
T1 sequence (Q9NY59 1-655): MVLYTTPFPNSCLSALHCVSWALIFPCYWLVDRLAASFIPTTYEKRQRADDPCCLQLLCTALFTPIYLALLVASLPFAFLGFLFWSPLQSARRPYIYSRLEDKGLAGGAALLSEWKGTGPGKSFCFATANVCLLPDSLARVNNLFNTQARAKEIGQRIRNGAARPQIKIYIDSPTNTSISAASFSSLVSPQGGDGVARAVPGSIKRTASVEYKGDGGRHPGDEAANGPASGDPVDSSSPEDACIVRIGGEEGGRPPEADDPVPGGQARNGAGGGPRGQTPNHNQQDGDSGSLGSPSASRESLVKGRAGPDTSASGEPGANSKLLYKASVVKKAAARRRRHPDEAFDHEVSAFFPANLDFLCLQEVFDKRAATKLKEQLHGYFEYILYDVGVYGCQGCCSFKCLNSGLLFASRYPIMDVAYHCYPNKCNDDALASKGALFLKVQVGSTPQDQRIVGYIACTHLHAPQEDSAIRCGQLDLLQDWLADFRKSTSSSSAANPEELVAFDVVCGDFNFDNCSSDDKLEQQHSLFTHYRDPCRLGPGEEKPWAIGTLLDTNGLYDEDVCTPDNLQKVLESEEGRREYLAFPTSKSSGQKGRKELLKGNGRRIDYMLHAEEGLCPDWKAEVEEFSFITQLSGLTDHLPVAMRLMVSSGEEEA
Assay: Inhibition of nSMase2 (IC50)
Assay type: biochemical

[1] = Table 1, Representative Inhibitors of nSMase2 of Formula (I)

Row | Compound | IC50 [1] | IC50 (Table 2, Inhibition of nSMase)
1 | COc1cc(-c2ncc[nH]2)cc(OC)c1O [Compound 18, 4-(1H-imidazol-2-yl)-2,6-dimethoxyphenol] | 400 nM | 400 nM
2 | COc1cc(-c2nc(C)c(C)[nH]2)cc(OC)c1O [Compound 19, 4-(4,5-dimethyl-1H-imidazol-2-yl)-2,6-dimethoxyphenol hydrochloride] | 500 nM | 500 nM
3 | COc1cc(-c2nc3c([nH]2)CCCC3)cc(OC)c1O [Compound 20, 2,6-dimethoxy-4-(4,5,6,7-tetrahydro-1H-benzo[d]imidazol-2-yl)phenol] | 400 nM | 400 nM
4 | COc1cc(-c2ncc(-c3ccccc3)[nH]2)cc(OC)c1O [Compound 23, 2,6-dimethoxy-4-(5-phenyl-1H-imidazol-2-yl)phenol hydrochloride] | – | 70 nM
5 | COc1cc(-c2nc(-c3ccccc3)c(-c3ccccc3)[nH]2)cc(OC)c1O [Compound 25, 4-(4,5-diphenyl-1H-imidazol-2-yl)-2,6-dimethoxyphenol] | – | 20 nM
6 | COc1cc(-c2ncc(-c3ccc(Br)cc3)[nH]2)cc(OC)c1O [Compound 26, 4-(5-(4-bromophenyl)-1H-imidazol-2-yl)-2,6-dimethoxyphenol] | 200 nM | 200 nM
7 | CCc1nc(-c2cc(OCC(F)(F)F)c(O)c(OCC(F)(F)F)c2)[nH]c1CC [Compound 37, 4-(4,5-diethyl-1H-imidazol-2-yl)-2,6-bis(2,2,2-trifluoroethoxy)phenol] | 700 nM | 700 nM
8 | COc1cc(-c2ncc(C34CC5CC(CC(C5)C3)C4)[nH]2)cc(OC)c1O [Compound 39, 2,6-dimethoxy-4-(5-adamantyl-1H-imidazol-2-yl)phenol] | 200 nM | 200 nM
9 | CCc1nc(-c2cc(OC)c(O)c(OC)c2)[nH]c1-c1ccccn1 [Compound 40, 4-(4-ethyl-5-(pyridin-2-yl)-1H-imidazol-2-yl)-2,6-dimethoxyphenol hydrochloride] | 500 nM | 500 nM
10 | COc1cc(-c2nc3ccccc3[nH]2)cc(OC)c1O [Compound 42, 4-(1H-benzo[d]imidazol-2-yl)-2,6-dimethoxyphenol] | 600 nM | 600 nM
11 | COc1cc(-c2nc3cccnc3[nH]2)cc(OC)c1O [Compound 43, 4-(3H-imidazo[4,5-b]pyridin-2-yl)-2,6-dimethoxyphenol] | 4000 nM | 4000 nM
12 | COc1cc(-c2nc3c(C)ccc(C)c3[nH]2)cc(OC)c1O [Compound 44, 4-(4,7-dimethyl-1H-benzo[d]imidazol-2-yl)-2,6-dimethoxyphenol] | 800 nM | 800 nM
13 | CC(C)(C)Oc1cc(-c2nc(-c3ccccc3)c(-c3cccs3)[nH]2)cc(OC(C)(C)C)c1O [Compound 45, 2,6-di-tert-butoxy-4-(4-phenyl-5-(thiophen-2-yl)-1H-imidazol-2-yl)phenol] | 400 nM | 400 nM
14 | CCCCc1nc(-c2cc(OC)c(O)c(OC)c2)[nH]c1CCCC [Compound 46, 4-(4,5-dibutyl-1H-imidazol-2-yl)-2,6-dimethoxyphenol] | 200 nM | 200 nM
15 | COc1cc(-c2nc(-c3ccccc3)c(-c3cccs3)n2C)cc(OC)c1O [Compound 3455] | 60000 nM | –
16 | COc1cc(C2=NC3CCCCC3N2)cc(OC)c1O (centres unmarked) [Compound 3546] | 70000 nM | –

The remaining lines, values ahead:

Row | IC50 [1] | IC50 (Table 2, Inhibition of nSMase) | Compound
17 | 20 nM | 30 nM | CC(C)Oc1cc(-c2nc(-c3ccccc3)c(-c3cccs3)[nH]2)cc(OC(C)C)c1O [Compound 22, 2,6-diisopropoxy-4-(4-phenyl-5-(thiophen-2-yl)-1H-imidazol-2-yl)phenol]
18 | 200 nM | 200 nM | COc1cc(-c2ncc(C)[nH]2)cc(OC)c1O [Compound 24, 2,6-dimethoxy-4-(5-methyl-1H-imidazol-2-yl)phenol]
19 | 20 nM | – | COc1cc(-c2nc(-c3cccs3)c(-c3cccs3)[nH]2)cc(OC)c1O [Compound 27, 4-(4,5-di(thiophen-2-yl)-1H-imidazol-2-yl)-2,6-dimethoxyphenol]
20 | 20 nM | – | COc1ccc(-c2nc(-c3cc(OC)c(O)c(OC)c3)[nH]c2-c2ccc(OC)cc2)cc1 [Compound 28, 4-(4,5-bis(4-methoxyphenyl)-1H-imidazol-2-yl)-2,6-dimethoxyphenol]
21 | 100 nM | 100 nM | COc1cc(-c2nc(-c3ccc(C)cc3)c[nH]2)cc(OC)c1O [Compound 29, 2,6-dimethoxy-4-(4-p-tolyl-1H-imidazol-2-yl)phenol]
22 | 100 nM | 100 nM | Oc1c(OC2CCCC2)cc(-c2nc(-c3ccccc3)c(-c3cccs3)[nH]2)cc1OC1CCCC1 [Compound 30, 2,6-bis(cyclopentyloxy)-4-(5-phenyl-4-(thiophen-2-yl)-1H-imidazol-2-yl)phenol]
23 | 40 nM | 40 nM | CCCOc1cc(-c2nc(-c3cccs3)c(-c3ccccc3)[nH]2)cc(OCCC)c1O [Compound 31, 4-(5-phenyl-4-(thiophen-2-yl)-1H-imidazol-2-yl)-2,6-dipropoxyphenol]
24 | 60 nM | – | CCCCc1[nH]c(-c2cc(OC)c(O)c(OC)c2)nc1C [Compound 32, 4-(5-butyl-4-methyl-1H-imidazol-2-yl)-2,6-dimethoxyphenol]
25 | 80 nM | 80 nM | CCc1nc(-c2cc(OC)c(O)c(OC)c2)[nH]c1CC [Compound 33, 4-(4,5-diethyl-1H-imidazol-2-yl)-2,6-dimethoxyphenol]
26 | 30 nM | 30 nM | COc1cc(-c2nc(-c3ccco3)c(-c3ccco3)[nH]2)cc(OC)c1O [Compound 34, 4-(4,5-di(furan-2-yl)-1H-imidazol-2-yl)-2,6-dimethoxyphenol hydrochloride]
27 | 20 nM | – | COc1cc(-c2nc(C)c(-c3ccccc3)[nH]2)cc(OC)c1O [Compound 35, 2,6-dimethoxy-4-(4-methyl-5-phenyl-1H-imidazol-2-yl)phenol]
28 | 60 nM | 60 nM | Oc1c(OCC(F)(F)F)cc(-c2nc(-c3ccccc3)c(-c3cccs3)[nH]2)cc1OCC(F)(F)F [Compound 36, 4-(4-phenyl-5-(thiophen-2-yl)-1H-imidazol-2-yl)-2,6-bis(2,2,2-trifluoroethoxy)phenol]
29 | 60 nM | 60 nM | COc1cc(-c2nc(-c3ccc(C)cc3)c(-c3ccc(C)cc3)[nH]2)cc(OC)c1O [Compound 38, 4-(4,5-di-p-tolyl-1H-imidazol-2-yl)-2,6-dimethoxyphenol]
30 | 10 nM | 10 nM | COc1cc(-c2nc(-c3cccs3)c(C)[nH]2)cc(OC)c1O [Compound 41, 2,6-dimethoxy-4-(4-methyl-5-(thiophen-2-yl)-1H-imidazol-2-yl)phenol hydrochloride]
31 | 60 nM | 60 nM | COc1cc(-c2nc(C(C)C)c(C(C)C)[nH]2)cc(OC)c1O [Compound 47, 4-(4,5-diisopropyl-1H-imidazol-2-yl)-2,6-dimethoxyphenol]
32 | 60 nM | 60 nM | COc1cc(-c2nc(-c3ccccc3)c(C(C)C)[nH]2)cc(OC)c1O [Compound 48, 4-(5-isopropyl-4-phenyl-1H-imidazol-2-yl)-2,6-dimethoxyphenol]
